# Patent US7713985B2, “Adenosine Aa2 receptor antagonists” (Schering Corporation, priority 2006, dated 2010)
# pKi: −log10 of the molar value.
# Target: T1, Human A2a Adenosine Receptor (Homo sapiens, UniProt P29274)
# T1 construct: purchased Receptor Biology, Inc., Beltsville, Md; RB-HA2a
# Assay: Human adenosine A2a receptor competition binding assay
# Settings: [3H]-SCH 58261 displacement, human A2a membranes
# Experimental: Human Adenosine A2a and A1 Receptor Competition Binding Assay Protocol
# A2a: Human A2a Adenosine Receptor membranes, Catalog #RB-HA2a, Receptor Biology, Inc., Beltsville, Md. Dilute to 17 μg/100 μl in membrane dilution buffer (see below).
# Membrane dilution buffer: Dulbecco's Phosphate Buffered Saline (Gibco/BRL)+10 mM MgCl2.
# Compound Dilution Buffer: Dulbecco's Phosphate Buffered Saline (Gibco/BRL)+10 mM MgCl2 supplemented with 1.6 mg/ml methyl cellulose and 16% DMSO. Prepared fresh daily.
# A2a: [3H]-SCH 58261, custom synthesis, AmershamPharmacia Biotech, Piscataway, N.J. Stock is prepared at 1 nM in membrane dilution buffer. Final assay concentration is 0.5 nM.
# A2a: To determine non-specific binding, add 100 nM CGS 15923 (RBI, Natick, Mass.). Working stock is prepared at 400 nM in compound dilution buffer.
# Prepare 1 mM stock solutions of compounds in 100% DMSO. Dilute in compound dilution buffer. Test at 10 concentrations ranging from 3 μM to 30 pM. Prepare working solutions at 4× final concentration in compound dilution buffer.
# Perform assays in deep well 96 well plates. Total assay volume is 200 μl. Add 50 μl compound dilution buffer (total ligand binding) or 50 μl CGS 15923 working solution (A2a non-specific binding) or 50 μl NECA working solution (A1 non-specific binding) or 50 μl of drug working solution. Add 50 μl ligand stock ([3H]-SCH 58261 for A2a, [3H]-DPCPX for A1). Add 100 μl of diluted membranes containing the appropriate receptor. Mix. Incubate at room temperature for 90 minutes. Harvest using a Brandel cell harvester onto Packard GF/B filter plates. Add 45 μl Microscint 20 (Packard), and count using the Packard TopCount Microscintillation Counter. Determine IC50 values by fitting the displacement curves using an iterative curve fitting program (Excel). Determine Ki values using the Cheng-Prusoff equation.
# T1 sequence (P29274 whole entry): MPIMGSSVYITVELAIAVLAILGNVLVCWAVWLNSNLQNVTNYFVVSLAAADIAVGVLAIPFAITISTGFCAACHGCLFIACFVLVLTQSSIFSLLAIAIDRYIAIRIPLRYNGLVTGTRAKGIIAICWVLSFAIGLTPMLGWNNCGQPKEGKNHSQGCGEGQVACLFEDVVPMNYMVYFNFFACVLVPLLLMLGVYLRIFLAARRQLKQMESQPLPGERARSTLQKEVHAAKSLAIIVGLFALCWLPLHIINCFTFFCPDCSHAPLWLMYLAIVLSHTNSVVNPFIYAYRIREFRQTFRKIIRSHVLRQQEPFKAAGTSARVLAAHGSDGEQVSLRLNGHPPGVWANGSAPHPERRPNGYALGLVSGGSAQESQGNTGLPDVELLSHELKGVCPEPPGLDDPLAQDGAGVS
row,pKi,SMILES
1,7.91,Nc1nc2ccccc2c2nn(Cc3cccc(F)c3)c(=O)n12 [Example 12]
2,7.92,Nc1nc2ccccc2c2nn(Cc3c(Cl)cccc3Cl)c(=O)n12 [Example 8]
3,8.33,Nc1nc2ccccc2c2nn(Cc3cccc(Cl)c3)c(=O)n12 [Example 13]
